Data on one compound can be found in US7311901B2, “Amphiphilic block copolymer and polymeric composition comprising the same for drug delivery” (Samyang Corporation, priority 2003, dated 2007).

The assay concerns Taxol®-pretreated cancer cells. Put plainly: IC50 of paclitaxel for Taxol®-pretreated cancer cells. The class given is cell-based, human. The settings on record: Taxol®-pretreated vs native cancer cells; data not shown.

Turning to `CC(=O)O[C@H]1C(=O)[C@@]2(C)[C@H]([C@H](OC(=O)c3ccccc3)[C@]3(O)C[C@H](OC(=O)[C@H](O)[C@@H](NC(=O)c4ccccc4)c4ccccc4)C(C)=C1C3(C)C)[C@]1(OC(C)=O)CO[C@@H]1C[C@@H]2O` [paclitaxel], the IC50 of paclitaxel entry was “increased significantly”.
